Measurements from ChEMBL document CHEMBL5625242, “Discovery of brain permeable 2-Azabicyclo[2.2.2]octane sulfonamides as a novel class of presenilin-1 selective γ-secretase inhibitors” (Eur J Med Chem, 2023).
Converted amounts (≈) assume the structure as drawn.

What was measured:
[1] = Inhibition of human PSEN1/APH1A expressed in MEF cells with Psen1/2 double knockout/Aph1ABC triple knockout by ELISA; type: cell-based
[2] = Inhibition of human PSEN1/APH1B expressed in MEF cells with Psen1/2 double knockout/Aph1ABC triple knockout by ELISA; type: cell-based
[3] = Inhibition of human PSEN2/APH1A expressed in MEF cells with Psen1/2 double knockout/Aph1ABC triple knockout by ELISA; type: cell-based
[4] = Inhibition of human PSEN2/APH1B expressed in MEF cells with Psen1/2 double knockout/Aph1ABC triple knockout by ELISA; type: cell-based
Cytochrome P450 2D6 = Cytochrome P450 2D6 (Homo sapiens, UniProt P10635); assay: Inhibition of human CYP2D6 using dextrometorphan as substrate by fluorescence based assay; type: ADME
Cytochrome P450 3A4 = Cytochrome P450 3A4 (Homo sapiens, UniProt P08684); assay: Inhibition of human CYP3A4 using midazolam as substrate by fluorescence based assay; type: ADME
Cytochrome P450 2C8 = target: T1, Cytochrome P450 2C8 (Homo sapiens, UniProt P10632); assay: Inhibition of human CYP2C8 using amodiaquine as substrate by fluorescence based assay; type: ADME
T1 sequence (P10632 whole entry): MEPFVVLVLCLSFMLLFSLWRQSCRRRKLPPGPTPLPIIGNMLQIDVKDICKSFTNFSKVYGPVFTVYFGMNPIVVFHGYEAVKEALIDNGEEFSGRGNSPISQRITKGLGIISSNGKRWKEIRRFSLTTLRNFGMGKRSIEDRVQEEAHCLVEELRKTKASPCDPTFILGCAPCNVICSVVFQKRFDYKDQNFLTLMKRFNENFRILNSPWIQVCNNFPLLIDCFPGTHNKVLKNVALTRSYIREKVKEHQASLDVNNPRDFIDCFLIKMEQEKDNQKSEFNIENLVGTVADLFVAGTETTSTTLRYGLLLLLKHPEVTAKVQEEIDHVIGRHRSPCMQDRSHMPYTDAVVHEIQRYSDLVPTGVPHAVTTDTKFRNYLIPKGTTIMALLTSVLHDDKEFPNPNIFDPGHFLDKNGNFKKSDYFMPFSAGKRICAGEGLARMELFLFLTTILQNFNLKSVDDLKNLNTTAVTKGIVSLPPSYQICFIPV

Cytochrome P450 2C9 = Cytochrome P450 2C9 (Homo sapiens, UniProt P11712); assay: Inhibition of human CYP2C9 using tolbutamide as substrate by fluorescence based assay; type: ADME
Cytochrome P450 2C19 = Cytochrome P450 2C19 (Homo sapiens, UniProt P33261); assay: Inhibition of human CYP2C19 using S-mephenytoin as substrate by fluorescence based assay; type: ADME
Cytochrome P450 1A2 = target: T2, Cytochrome P450 1A2 (Homo sapiens, UniProt P05177); assay: Inhibition of human CYP1A2 using phenacetin as substrate by fluorescence based assay; type: ADME
T2 sequence (P05177 whole entry): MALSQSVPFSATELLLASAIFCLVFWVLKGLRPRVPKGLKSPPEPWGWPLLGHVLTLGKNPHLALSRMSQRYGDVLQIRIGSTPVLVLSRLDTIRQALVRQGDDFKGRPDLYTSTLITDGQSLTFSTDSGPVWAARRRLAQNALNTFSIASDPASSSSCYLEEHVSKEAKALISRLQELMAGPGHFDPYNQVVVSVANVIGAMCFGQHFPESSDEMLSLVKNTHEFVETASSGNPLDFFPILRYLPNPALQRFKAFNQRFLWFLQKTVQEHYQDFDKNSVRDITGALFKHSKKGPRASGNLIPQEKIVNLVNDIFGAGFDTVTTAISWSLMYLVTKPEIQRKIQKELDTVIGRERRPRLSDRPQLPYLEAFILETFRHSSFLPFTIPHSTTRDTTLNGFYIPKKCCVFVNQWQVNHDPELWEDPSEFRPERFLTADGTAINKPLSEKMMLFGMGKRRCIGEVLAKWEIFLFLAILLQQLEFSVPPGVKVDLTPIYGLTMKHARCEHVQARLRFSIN

[5] = Protein binding in mouse plasma assessed as free fraction at 5 uM incubated for 4.5 hrs by HPLC analysis; type: ADME, cell-free
[6] = Free fraction in rat brain homogenate at 5 uM incubated for 5 hrs by HPLC-MS/MS analysis; type: ADME, tissue-based
[7] = Kinetic solubility of compound at pH 2; type: physicochemical; conditions: buffer, read-out: Kinetic_solubility
[8] = Kinetic solubility of compound at pH 4; type: physicochemical; conditions: buffer, read-out: Kinetic_solubility
[9] = Kinetic solubility of compound at pH 7.4; type: physicochemical; conditions: buffer, read-out: Kinetic_solubility
human MDR1 [10] = assay: Apparent permeability across apical to basal side in MDCK cells transfected with human MDR1 at 5 uM by LC-MS/MS analysis; type: ADME, cell-based, Canis lupus familiaris; conditions: dog
human MDR1 [11] = assay: Efflux ratio of apparent permeability basal to apical side over apical to basal side in MDCK cells transfected with human MDR1 at 5 uM by LC-MS/MS analysis; type: ADME, cell-based, Canis lupus familiaris; conditions: dog
[12] = target: Voltage-gated inwardly rectifying potassium channel KCNH2 (Homo sapiens, UniProt Q12809); assay: Inhibition of hERG; type: toxicity
calcium channel = assay: Inhibition of rat calcium channel; type: toxicity
sodium channel = assay: Inhibition of rat sodium channel; type: toxicity
[13] = Drug concentration in Swiss mouse plasma at 2.5 mg/kg, iv measured at 5 mins post-dose; type: ADME, organism-based
[14] = Drug concentration in Swiss mouse brain at 2.5 mg/kg, iv measured at 5 mins post-dose; type: ADME, organism-based; conditions: read-out: Ct
[15] = Ratio of drug concentration in brain to plasma of Swiss mouse at 2.5 mg/kg, iv measured at 5 mins post-dose; type: ADME, organism-based; conditions: read-out: BPR
[16] = Unbound drug concentration in Swiss mouse plasma at 2.5 mg/kg, iv measured at 5 mins post-dose; type: ADME, organism-based; conditions: in vivo
[17] = Ratio of unbound drug concentration in brain to plasma in Swiss mouse at 2.5 mg/kg, iv measured at 5 mins post-dose; type: ADME, organism-based; conditions: read-out: K(p,uu,brain)
[18] = Half life in CD-1 mouse at 30 mg/kg, po measured at 4 hrs post-dose; type: ADME, organism-based; conditions: in vivo
[19] = Tmax in CD-1 mouse at 30 mg/kg, po measured at 4 hrs post-dose; type: ADME, organism-based; conditions: in vivo
[20] = AUClast in CD-1 mouse at 30 mg/kg, po measured at 4 hrs post-dose; type: ADME, organism-based; conditions: in vivo
[21] = AUC (0 to infinity) in CD-1 mouse at 30 mg/kg, po measured at 4 hrs post-dose; type: ADME, organism-based; conditions: in vivo
[22] = Volume of distribution at steady state in CD-1 mouse at 30 mg/kg, po measured at 4 hrs post-dose; type: ADME, organism-based; conditions: in vivo
[23] = MRT in CD-1 mouse at 30 mg/kg, po measured at 4 hrs post-dose; type: ADME, organism-based; conditions: in vivo

Sequence of Cytochrome P450 2C19 (P33261 whole entry): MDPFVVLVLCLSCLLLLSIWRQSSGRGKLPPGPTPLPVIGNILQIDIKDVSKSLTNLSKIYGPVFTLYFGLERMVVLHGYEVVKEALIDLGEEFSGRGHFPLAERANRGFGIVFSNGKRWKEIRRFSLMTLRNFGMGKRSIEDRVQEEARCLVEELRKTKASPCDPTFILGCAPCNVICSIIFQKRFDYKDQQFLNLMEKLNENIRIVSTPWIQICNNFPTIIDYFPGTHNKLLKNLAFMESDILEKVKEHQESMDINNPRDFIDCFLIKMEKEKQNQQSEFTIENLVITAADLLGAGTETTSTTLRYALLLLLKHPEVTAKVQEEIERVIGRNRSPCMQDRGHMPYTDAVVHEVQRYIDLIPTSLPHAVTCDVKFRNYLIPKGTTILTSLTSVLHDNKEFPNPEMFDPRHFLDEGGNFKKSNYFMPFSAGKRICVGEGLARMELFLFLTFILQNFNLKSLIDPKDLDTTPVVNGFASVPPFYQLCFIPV
Sequence of Cytochrome P450 2D6 (P10635 whole entry): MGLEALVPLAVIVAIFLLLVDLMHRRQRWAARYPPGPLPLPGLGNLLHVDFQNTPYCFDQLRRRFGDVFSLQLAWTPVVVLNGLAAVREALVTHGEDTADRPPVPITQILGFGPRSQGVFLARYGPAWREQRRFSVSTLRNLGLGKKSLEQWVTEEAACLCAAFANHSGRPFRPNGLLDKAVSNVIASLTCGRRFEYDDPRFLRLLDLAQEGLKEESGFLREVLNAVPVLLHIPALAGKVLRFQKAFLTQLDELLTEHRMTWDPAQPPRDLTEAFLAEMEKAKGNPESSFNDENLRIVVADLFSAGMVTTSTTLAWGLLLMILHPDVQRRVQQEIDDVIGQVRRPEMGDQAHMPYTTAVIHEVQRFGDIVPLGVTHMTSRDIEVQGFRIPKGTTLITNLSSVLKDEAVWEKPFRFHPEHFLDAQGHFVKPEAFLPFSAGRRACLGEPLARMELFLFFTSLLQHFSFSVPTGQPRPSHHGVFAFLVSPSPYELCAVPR
Sequence of Cytochrome P450 2C9 (P11712 whole entry): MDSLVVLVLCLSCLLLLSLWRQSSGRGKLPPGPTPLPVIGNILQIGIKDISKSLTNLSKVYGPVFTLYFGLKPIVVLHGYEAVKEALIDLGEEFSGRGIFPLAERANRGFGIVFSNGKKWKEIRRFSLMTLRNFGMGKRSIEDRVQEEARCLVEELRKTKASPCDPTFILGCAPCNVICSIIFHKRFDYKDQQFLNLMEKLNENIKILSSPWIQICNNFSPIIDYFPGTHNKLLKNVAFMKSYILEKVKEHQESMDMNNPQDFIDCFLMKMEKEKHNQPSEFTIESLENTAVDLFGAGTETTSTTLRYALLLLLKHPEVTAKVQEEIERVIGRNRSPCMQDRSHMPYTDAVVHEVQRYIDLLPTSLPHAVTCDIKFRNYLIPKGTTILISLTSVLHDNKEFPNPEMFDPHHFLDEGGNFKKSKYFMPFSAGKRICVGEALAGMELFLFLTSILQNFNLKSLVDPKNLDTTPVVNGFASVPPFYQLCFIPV
Sequence of Cytochrome P450 3A4 (P08684 whole entry): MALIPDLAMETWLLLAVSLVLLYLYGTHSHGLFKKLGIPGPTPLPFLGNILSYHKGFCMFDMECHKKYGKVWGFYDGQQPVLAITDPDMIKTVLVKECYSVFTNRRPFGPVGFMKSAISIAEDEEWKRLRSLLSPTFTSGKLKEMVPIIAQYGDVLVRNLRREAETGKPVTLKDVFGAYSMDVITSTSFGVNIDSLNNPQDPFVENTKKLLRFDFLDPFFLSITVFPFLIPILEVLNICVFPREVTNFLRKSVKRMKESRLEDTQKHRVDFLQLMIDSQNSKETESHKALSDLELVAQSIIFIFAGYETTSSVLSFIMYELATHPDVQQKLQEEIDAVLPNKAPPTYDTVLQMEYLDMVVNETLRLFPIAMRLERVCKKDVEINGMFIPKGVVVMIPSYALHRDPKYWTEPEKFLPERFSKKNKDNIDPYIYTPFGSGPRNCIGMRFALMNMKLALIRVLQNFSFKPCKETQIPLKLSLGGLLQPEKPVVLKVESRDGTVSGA
Sequence of Voltage-gated inwardly rectifying potassium channel KCNH2 (Q12809 whole entry): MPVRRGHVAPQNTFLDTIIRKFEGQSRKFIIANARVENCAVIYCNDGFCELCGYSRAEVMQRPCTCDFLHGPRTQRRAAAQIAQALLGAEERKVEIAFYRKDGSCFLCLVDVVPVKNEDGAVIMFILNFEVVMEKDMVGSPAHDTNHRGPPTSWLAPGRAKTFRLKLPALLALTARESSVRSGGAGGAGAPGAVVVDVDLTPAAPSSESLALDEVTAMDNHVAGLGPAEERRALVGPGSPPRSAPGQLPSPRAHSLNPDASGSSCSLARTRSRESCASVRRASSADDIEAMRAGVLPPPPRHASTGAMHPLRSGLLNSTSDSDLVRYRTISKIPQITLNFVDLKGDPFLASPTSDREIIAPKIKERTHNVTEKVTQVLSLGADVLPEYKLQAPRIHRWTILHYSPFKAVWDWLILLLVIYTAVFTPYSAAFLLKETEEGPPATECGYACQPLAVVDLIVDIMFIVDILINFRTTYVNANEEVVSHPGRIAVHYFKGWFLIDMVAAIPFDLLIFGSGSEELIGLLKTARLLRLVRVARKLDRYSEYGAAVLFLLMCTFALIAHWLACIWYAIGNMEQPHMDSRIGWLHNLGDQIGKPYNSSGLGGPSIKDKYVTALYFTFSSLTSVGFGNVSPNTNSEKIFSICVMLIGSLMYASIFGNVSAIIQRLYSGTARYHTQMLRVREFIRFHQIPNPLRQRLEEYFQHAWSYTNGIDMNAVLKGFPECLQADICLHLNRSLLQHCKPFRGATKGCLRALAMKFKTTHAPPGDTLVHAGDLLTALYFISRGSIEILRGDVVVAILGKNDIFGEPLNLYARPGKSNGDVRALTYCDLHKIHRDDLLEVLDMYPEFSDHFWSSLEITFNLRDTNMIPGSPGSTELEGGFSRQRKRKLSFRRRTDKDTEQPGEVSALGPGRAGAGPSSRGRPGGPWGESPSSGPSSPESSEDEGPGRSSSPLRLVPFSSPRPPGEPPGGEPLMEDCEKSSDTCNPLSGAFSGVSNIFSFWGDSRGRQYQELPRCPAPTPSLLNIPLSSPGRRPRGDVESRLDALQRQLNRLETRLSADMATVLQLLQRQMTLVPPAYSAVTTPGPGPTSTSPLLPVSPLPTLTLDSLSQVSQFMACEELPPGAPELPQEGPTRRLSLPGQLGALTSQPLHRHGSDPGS

Question: Which IC50 [1] does the source give for O=S(=O)(c1ccc(Cl)cc1)N1[C@H]2CC[C@@H]([C@H]1c1ccc(C(F)(F)F)cc1)[C@@H](O)C2 here?
Answer: 0.019 µM

Question: What about the IC50 [2] of the same compound?
Answer: 0.0055 µM

Question: What about the IC50 [3] of the same compound?
Answer: 1.95 µM

Question: What about the IC50 [4] of the same compound?
Answer: 2.14 µM

Question: And the IC50 (Cytochrome P450 2D6)?
Answer: > 10 µM

Question: And the IC50 (Cytochrome P450 3A4)?
Answer: 3 µM

Question: What about the IC50 (Cytochrome P450 2C8) of the same compound?
Answer: > 10 µM

Question: What about the IC50 (Cytochrome P450 2C9) of the same compound?
Answer: > 10 µM

Question: What about the IC50 (Cytochrome P450 2C19) of the same compound?
Answer: > 10 µM

Question: What about the IC50 (Cytochrome P450 1A2) of the same compound?
Answer: > 10 µM

Question: What about the fraction unbound at 4.5 h, 5 µM [5] of the same compound?
Answer: 0.00309

Question: And the fraction unbound at 5 h, 5 µM [6]?
Answer: 0.00115

Question: What about the solubility kinetic [7] of the same compound?
Answer: 13 µM (≈ 5.8 µg/mL)

Question: What about the solubility kinetic [8] of the same compound?
Answer: 12 µM (≈ 5.35 µg/mL)

Question: What about the solubility kinetic [9] of the same compound?
Answer: 18 µM (≈ 8.03 µg/mL)

Question: What about the Papp A→B at 5 µM (human MDR1 [10]) of the same compound?
Answer: 6.3 ×10⁻⁶ cm/s

Question: What about the efflux ratio at 5 µM (human MDR1 [11]) of the same compound?
Answer: 1.95

Question: And the IC50 [12]?
Answer: > 10 µM

Question: What about the IC50 (calcium channel) of the same compound?
Answer: > 10 µM

Question: What about the IC50 (sodium channel) of the same compound?
Answer: > 10 µM

Question: What about the concentration at 5 min [13] of the same compound?
Answer: 680 ng/mL

Question: And the concentration at 5 min [14]?
Answer: 3620 ng/g

Question: What about the Kp at 5 min [15] of the same compound?
Answer: 5.4

Question: And the “Cp(f)” value [16]?
Answer: 2.1 ng/mL

Question: And the Kp uu at 5 min [17]?
Answer: 1.97

Question: And the half-life [18]?
Answer: 28.9 min

Question: What about the Tmax [19] of the same compound?
Answer: 120 min

Question: What about the AUC(0-t) at 4 h [20] of the same compound?
Answer: 163 ng·h/mL

Question: And the AUC [21]?
Answer: 174 ng·h/mL

Question: What about the Vdss [22] of the same compound?
Answer: 3.43 L/kg

Question: And the MRT [23]?
Answer: 27.2 min
